Data taken from US4434290A, “Pyrido (4,3-B) carbazoles substituted in the 1 position by a polyamine chain” (priority 1978, dated 1984).

Assays:
[1] = system: C13/8 cells; experiment: In vitro cytotoxic study on hamster cells, complete inhibition of growth, C13/8 (Table XVI); assay type: cell-based; details: for IC (100 (complete growth inhibition, minimal)): Mesocricetus auratus, read-out: Minimal dose leading to a complete inhibition of the growth
Text: (§1) Cytotoxic "in vitro" study on hamster cells on leukemia L1210 cells of the serie.
In particular, the line BHK 21 of hamster cells and a clone derived from this line were used, converted by the virus of the hamster sarcoma (clone HS5).
After detachment by trypsin, the cells were placed under culture in plastic Petri dishes of 35 mm diameter at the concentration of 2.10^5 cells/dish, in a "Eagle" culture medium supplemented with "Bactotryptophosphate Broth Difco" and with 10% of calf serum [M. STOKER and I. MAC-PHERSON Virology, 14, 1961, 359].
(§2) After 5 hours, the cells were attached to a plastic support and the products to be tested whose solutions had been formed in water or in DMSO (dimethylsulphoxide) if the product was little soluble in water, was added. In the latter case a control was carried out with the same final concentration of DMSO in the culture medium.
(§3) The state of the cells was examined 24, 48 and 72 hours later.

[2] = system: HS5 cells; experiment: In vitro cytotoxic study on hamster cells converted by the virus of the hamster sarcoma, clone HS5 (Table XVI); assay type: cell-based; details: for IC (100 (complete growth inhibition, minimal)): Mesocricetus auratus, read-out: Minimal dose leading to a complete inhibition of the growth
Method: Cytotoxic "in vitro" study on hamster cells on leukemia L1210 cells of the serie. In particular, the line BHK 21 of hamster cells and a clone derived from this line were used, converted by the virus of the hamster sarcoma (clone HS5). […] STOKER and […] Virology, 14, 1961, 359]. After 5 hours, the cells were attached to a plastic support and the products to be tested whose solutions had been formed in water or in DMSO (dimethylsulphoxide) if the product was little soluble in water, was added. In the latter case a control was carried out with the same final concentration of DMSO in the culture medium. The state of the cells was examined 24, 48 and 72 hours later.

[3] = system: L1210 cells; experiment: In vitro cytotoxic study on leukemia L1210 cells, complete inhibition of growth (Table XVI); assay type: cell-based; details: for IC (100 (complete growth inhibition, minimal)): Mus musculus, read-out: Minimal dose leading to a complete inhibition of the growth
Method: as §1, §2, §3
In the case of the L1210 cells, the tests were carried out in a medium gelled with agarose, the L1210 cells growing in suspension.

[4] = system: cells of viro-induced leukemia of Friend; experiment: In vitro cytotoxic study on cells of the Friend leukemia of the mouse (Table XV); assay type: cell-based; details: for IC50 / IC100: Mus musculus, 24 h; for IC50: read-out: LD 50 (50% lethal dose); for IC100: read-out: LD 100 (100% lethal dose); for LD 50 HUM / LD 50 product: ratio to reference HUM
Method: "In vitro" cytotoxic study of the compounds of the invention on the cells of viro-induced leukemia of Friend in the mouse [J. Exp. Med. 1957, 105, p. 307-318].
The cells were grown in suspension in the RPMI 1640 medium [catalogue of GIBCO Bio-Cult-Ltd, Washington Road Sandyford Industrial Estate Paisley PA3 4EP Renfrewshire Scotland] supplement with 20% of embryonary calf serum, with penicillin and with streptopycin. The duplication time of the culture was about 11 hours. The growth factor is equal to 1 or very close to 1 (all the cells multiplying).
The cultures were seeded at times t=0 at the concentration of 2×10^5 cells per ml in Falcon dishes containing 4 ml of medium. 24 hours later, the product to be tested (in solution, in acetic water) was added, at the moment when the cells were in the exponential growth phase. 24 hours after the addition of the product, the cells were counted and the percentage of living cells determined by an exclusion test with trypan blue.

[5] = system: leukemia L1210; experiment: Leukemia L1210 in vivo, measurement of survival time (Table XII); design: species or system B6 D2 Fl (C 57 Bl/6×DBA/2) Fl mice; MST: unit not given here; details: 10^5 cells, i.p.
Method: The following pharmacological trials relate to the effects of the compounds of the invention on leukemia L1210 in vivo.
G. Proc. Nat. Acad. Sci. 1972, 69, 1042-1047 and Schepartz S., Screening 1971, Cancer Chemother. Part 3; Vol. 2, p. 3].
The properties were determined by the curative action inoculated experimental leukemia L1210. This leukemia was maintained on B6 D2 Fl (C 57 Bl/6×DBA/2) Fl mice in the proportion of 6 or 10 mice per experimental batch. The compounds to be tested were injected by the intraperitoneal route one or several days after inoculation of the cells (1 injection only). […] The death interval was determined, the first figure of the Table indicating the date of the first mouse death and the second the date of the last mouse death. The mean survival time was also measured (MST). A characteristic value is the percentage of increased life span (ILS %). This value (Cancer. Res. 1971, 31, 1883-1887) is the ratio: [formula] where S^t =survival of treated animals and
S^c =survival of control animals.

[6] = system: cell cultures; experiment: Cytotoxicity in pharmacological tests (general statements); assay type: cell-based
[7] = L1210, medium gelled with agarose

## CCN(CC)CCCNc1nccc2c(C)c3[nH]c4ccncc4c3cc12 [BD 40, reference compound]
[1]
  Minimal dose leading to a complete inhibition of the growth: 0.25 μ M
[2]
  Minimal dose leading to a complete inhibition of the growth: 0.25 μ M
[3]; [7]
  Minimal dose leading to a complete inhibition of the growth: 0.2 μ M

## COc1ccc2[nH]c3c(C)c4ccnc(NCCN)c4cc3c2c1 [Compound 11]
[4]
  activity compared with HUM / known derivatives: more active than the derivatives already known
  IC50: 100 nM
  IC100: 0.25 µM
  LD 50 HUM / LD 50 product: 3
[1]
  IC (100 (complete growth inhibition, minimal)): 1 µM
[2]
  IC (100 (complete growth inhibition, minimal)): 1 µM

## COc1ccc2[nH]c3c(C)c4ccnc(NCCCN)c4cc3c2c1 [Compound 12]
[4]
  IC50: 250 nM
  IC100: 0.7 µM
  LD 50 HUM / LD 50 product: 1.5
[1]
  IC (100 (complete growth inhibition, minimal)): 2 µM
[2]
  IC (100 (complete growth inhibition, minimal)): 2 µM

## COc1ccc2[nH]c3c(C)c4ccnc(NCCCCN)c4cc3c2c1 [Compound 13]
[4]
  IC50: 7000 nM
  IC100: 15 µM
  LD 50 HUM / LD 50 product: 0.04
[1]
  IC (100 (complete growth inhibition, minimal)): 2 µM
[2]
  IC (100 (complete growth inhibition, minimal)): 2 µM

## COc1ccc2[nH]c3c(C)c4ccnc(NCCCCCN)c4cc3c2c1 [Compound 14]
[4]
  IC50: 500 nM
  IC100: 1.5 µM
  LD 50 HUM / LD 50 product: 0.6
[1]
  IC (100 (complete growth inhibition, minimal)): 2 µM
[2]
  IC (100 (complete growth inhibition, minimal)): 2 µM

## COc1ccc2[nH]c3c(C)c4ccnc(NCCCCCCN)c4cc3c2c1 [Compound 15]
[4]
  IC50: 800 nM
  IC100: 2 µM
  LD 50 HUM / LD 50 product: 0.4
[1]
  IC (100 (complete growth inhibition, minimal)): 2 µM
[2]
  IC (100 (complete growth inhibition, minimal)): 2 µM

## COc1ccc2[nH]c3c(C)c4ccnc(NCCN(C)C)c4cc3c2c1 [Compound 16]
[4]
  IC50: 800 nM
  IC100: 3 µM
  LD 50 HUM / LD 50 product: 0.4
[1]
  IC (100 (complete growth inhibition, minimal)): 1 µM
[2]
  IC (100 (complete growth inhibition, minimal)): 2 µM

## COc1ccc2[nH]c3c(C)c4ccnc(NCCCN(C)C)c4cc3c2c1 [Compound 17]
[4]
  IC50: 1500 nM
  IC100: 3 µM
  LD 50 HUM / LD 50 product: 0.2
[1]
  IC (100 (complete growth inhibition, minimal)): 1 µM
[2]
  IC (100 (complete growth inhibition, minimal)): 2 µM

## CCN(CC)CCCNc1nccc2c(C)c3[nH]c4ccc(OC)cc4c3cc12 [Compound 18]
[5]; 20 mg/kg, day +3
  Death interval (mice): 13-19
  ILS %: 38.8%
  MST: 16.1
[4]
  IC50: 500 nM
  IC100: 1.5 µM
  LD 50 HUM / LD 50 product: 0.6
[1]
  IC (100 (complete growth inhibition, minimal)): 5 µM
[2]
  IC (100 (complete growth inhibition, minimal)): 5 µM

## CCN(CC)CCCC(C)Nc1nccc2c(C)c3[nH]c4ccc(OC)cc4c3cc12 (centres unmarked) [Compound 19]
[5]; 10 mg/kg, day +4
  Death interval (mice): 11-16
  ILS %: 25%
  MST: 13
[5]; 20 mg/kg, day +4
  Death interval (mice): 11-16
  ILS %: 19.2%
  MST: 12.4
[4]
  IC50: 1300 nM
  IC100: 3 µM
  LD 50 HUM / LD 50 product: 0.2

## COc1ccc2[nH]c3c(C)c4ccnc(N5CCCCC5)c4cc3c2c1 [Compound 21]
[4]
  IC50: 35000 nM
  IC100: 100 µM
  LD 50 HUM / LD 50 product: 1.1
[1]
  IC (100 (complete growth inhibition, minimal)): > 5 µM
[2]
  IC (100 (complete growth inhibition, minimal)): > 5 µM
[6]
  cytotoxic activity: not cytotoxic

## Cc1c2ccnc(NCCCN)c2cc2c1[nH]c1ccc(OCc3ccccc3)cc12 [Compound 23]
[4]
  IC50: 300 nM
  IC100: 0.9 µM
  LD 50 HUM / LD 50 product: 1

## CCN(CC)CCCNc1nccc2c(C)c3[nH]c4ccc(OCc5ccccc5)cc4c3cc12 [Compound 24]
[4]
  IC50: 3000 nM
  IC100: 10 µM
  LD 50 HUM / LD 50 product: 0.1
[3]; [7]
  IC (100 (complete growth inhibition, minimal)): 0.4 µM
[3]; summary of Table XVI
  activity compared with the reference BD40: almost as active as the reference dipyrido-indole (BD40)

## COc1ccc2[nH]c3c(C)c4ccnc(NCCCN)c4c(C)c3c2c1 [Compound 25]
[5]; 10 mg/kg, day +4
  Death interval (mice): 12-13
  ILS %: 21.1%
  MST: 12.6
[5]; 20 mg/kg, day +4
  Death interval (mice): 8-12
  MST: 9.6
[4]
  activity compared with HUM / known derivatives: more active than the derivatives already known
  IC50: 120 nM
  IC100: 0.3 µM
  LD 50 HUM / LD 50 product: 3
[3]; [7]
  IC (100 (complete growth inhibition, minimal)): 0.9 µM

## COc1ccc2[nH]c3c(C)c4ccnc(NCCCN(C)C)c4c(C)c3c2c1 [Compound 26]
[5]; 10 mg/kg, day +4
  Death interval (mice): 12-16
  ILS %: 38.5%
  MST: 14.4
[5]; 20 mg/kg, day +4
  Death interval (mice): 16-19
  ILS %: 67.3%
  MST: 17.4
[4]
  IC50: 400 nM
  IC100: 1 µM
  LD 50 HUM / LD 50 product: 0.75

## CCN(CC)CCCNc1nccc2c(C)c3[nH]c4ccc(O)cc4c3cc12 [Compound 29]
[5]; 10 mg/kg, day +4
  Death interval (mice): 15-17
  ILS %: 55.8%
  MST: 16.2
[5]; 20 mg/kg, day +4
  Death interval (mice): 10-15
  ILS %: 19.2%
  MST: 12.4
[4]
  activity compared with HUM / known derivatives: more active than the derivatives already known
  IC50: 17 nM
  IC100: 0.04 µM
  LD 50 HUM / LD 50 product: 18

## Cc1c2cc[n+](C)cc2c(C)c2c1[nH]c1ccc(O)cc12 [HUM, 2-methyl-9-hydroxy ellipticinium acetate, reference compound]
[4]
  IC50: 300 nM
  IC100: 0.8 µM
